Data published in PubChem BioAssay AID1963867 (Molecular Pharmacology Branch, DTP, NCI, 2024).

Tested on: KRAS-mutant PDC tumor spheroid with HUVEC/MSC, viability
Assay: Anticancer human tumor 327498-153-R-J2-PDC patient-derived uterine carcinosarcoma cell line growth inhibition [KRAS2]
Settings: for IC50: curve of first compound; for viability, T/C: stronger effect = lower value
Procedure, shortened: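 KRAS-mutant tumor cells were grown as spheroids with HUVEC endothelial cells and human MSCs as stroma. Targeted agents were tested alone and with KRAS pathway inhibitors. Doses started at or near clinical Cmax, or 10 microM, descending half-log.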
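Note: spheroids exposed to agents for seven days before reading.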
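Throughout, for viability, T/C: 100% = DMSO vehicle wells so lower means fewer viable cells.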

SMILES: CC1COCCN1c1cc(-c2ccnn2C)c2ccnc(-c3ccn[nH]3)c2n1 (stereo not given) + C=CC(=O)N1CCN(c2nc(OCC3CCCN3C)nc3c2CCN(c2cccc4cccc(C)c24)C3)CC1CC#N
- IC50 (second compound 0.0316 µM): 12.5 nM
- IC50 (second compound 0.1 µM): 10 nM
- IC50 (second compound 0.316 µM): < 10 nM
- IC50 (second compound 1 µM): < 10 nM
- IC50 (second compound 3.16 µM): < 10 nM
- viability, T/C (second compound 0.0316 µM, first compound 0.01 µM): 55.6%
- viability, T/C (second compound 0.0316 µM, first compound 0.0316 µM): 26.6%
- viability, T/C (second compound 0.0316 µM, first compound 0.1 µM): 8.55%
- viability, T/C (second compound 0.0316 µM, first compound 0.316 µM): 6.25%
- viability, T/C (second compound 0.0316 µM, first compound 1 µM): 6.05%
- viability, T/C (second compound 0.0316 µM, first compound 3.16 µM): 5.16%
- viability, T/C (second compound 0.1 µM, first compound 0.01 µM): 50.2%
- viability, T/C (second compound 0.1 µM, first compound 0.0316 µM): 21%
- viability, T/C (second compound 0.1 µM, first compound 0.1 µM): 9.02%
- viability, T/C (second compound 0.1 µM, first compound 0.316 µM): 5.92%
- viability, T/C (second compound 0.1 µM, first compound 1 µM): 6.34%
- viability, T/C (second compound 0.1 µM, first compound 3.16 µM): 5.2%
- viability, T/C (second compound 0.316 µM, first compound 0.01 µM): 35.1%
- viability, T/C (second compound 0.316 µM, first compound 0.0316 µM): 21.6%
- viability, T/C (second compound 0.316 µM, first compound 0.1 µM): 7.42%
- viability, T/C (second compound 0.316 µM, first compound 0.316 µM): 4.41%
- viability, T/C (second compound 0.316 µM, first compound 1 µM): 4.61%
- viability, T/C (second compound 0.316 µM, first compound 3.16 µM): 4.35%
- viability, T/C (second compound 1 µM, first compound 0.01 µM): 29.9%
- viability, T/C (second compound 1 µM, first compound 0.0316 µM): 14.6%
- viability, T/C (second compound 1 µM, first compound 0.1 µM): 3.87%
- viability, T/C (second compound 1 µM, first compound 0.316 µM): 3.63%
- viability, T/C (second compound 1 µM, first compound 1 µM): 4.58%
- viability, T/C (second compound 1 µM, first compound 3.16 µM): 3.92%
- viability, T/C (second compound 3.16 µM, first compound 0.01 µM): 0.17%
- viability, T/C (second compound 3.16 µM, first compound 0.0316 µM): 0.63%
- viability, T/C (second compound 3.16 µM, first compound 0.1 µM): 0.14%
- viability, T/C (second compound 3.16 µM, first compound 0.316 µM): 0.14%
- viability, T/C (second compound 3.16 µM, first compound 1 µM): 0.29%
- viability, T/C (second compound 3.16 µM, first compound 3.16 µM): 0.22%
